ChEMBL document CHEMBL4418495, “Entpd5 inhibitors” (2012)
Active and inactive are the calls of the source. Unless noted, the calls are words filed in the database; no cut-off is given here.

What follows are compounds tested against T1, Ectonucleoside triphosphate diphosphohydrolase 5 (Mus musculus) (UniProt Q9WUZ9) (assay: Inhibition of ENTPD5 in PTEN knockout mouse MEF cells assessed as induction of ER stress by measuring increase in GRP78/BiP expression at 30 uM incubated for 24 hrs by Western blotting analysis).
T1 sequence (whole entry): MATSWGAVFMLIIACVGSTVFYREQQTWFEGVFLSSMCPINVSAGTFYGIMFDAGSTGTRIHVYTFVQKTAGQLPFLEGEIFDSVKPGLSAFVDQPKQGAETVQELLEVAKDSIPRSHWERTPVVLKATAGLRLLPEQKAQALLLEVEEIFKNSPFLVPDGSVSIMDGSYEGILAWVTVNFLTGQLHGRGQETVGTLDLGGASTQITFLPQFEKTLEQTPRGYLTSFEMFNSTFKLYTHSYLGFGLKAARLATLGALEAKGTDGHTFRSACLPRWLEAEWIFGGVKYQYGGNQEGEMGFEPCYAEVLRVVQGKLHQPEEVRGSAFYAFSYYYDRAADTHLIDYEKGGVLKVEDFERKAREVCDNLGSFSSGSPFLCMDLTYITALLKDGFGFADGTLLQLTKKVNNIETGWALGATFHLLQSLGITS
Assay type: cell-based
With `COc1ccc(-n2cccc2/C=C2\C(=O)NC(=S)N(c3cccc(Br)c3)C2=O)cc1` the inhibition was “Active”. `O=C1NC(=S)N(c2ccccc2)C(=O)/C1=C/c1ccc(-c2cc([N+](=O)[O-])ccc2Cl)o1` was tested, and the inhibition was “Active”. In the case of `O=C(Nc1ccccc1)NC(N1CCOCC1)C(Cl)(Cl)Cl` (centres undefined), the inhibition is reported as “Active”. `Cc1cc(I)cc2c1NC(c1ccc([N+](=O)[O-])cc1)C1CC=CC21` (centres undefined) was tested, and the inhibition was “Active”. `Cc1ccc(-c2ccc(C=C3C(=O)NC(=S)NC3=O)o2)c(Br)c1` was tested, and the inhibition was “Active”. `O=C1NC(=S)N(c2ccccc2)C(=O)/C1=C/c1ccc(-c2ccc(F)cc2)o1` was tested, and the inhibition was “Active”.

Each compound was assayed against T1, Ectonucleoside triphosphate diphosphohydrolase 5 (Mus musculus) (assay: Inhibition of ENTPD5 in PTEN knockout mouse MEF cells assessed as induction of ER stress by measuring increase in GRP78/BiP expression incubated for 24 hrs by Western blotting analysis).
Assay type: cell-based
With `COc1ccc(-n2cccc2/C=C2\C(=O)NC(=S)N(c3cccc(Br)c3)C2=O)cc1` the inhibition was “Dose-dependent effect”.

These compounds were tested against T1, Ectonucleoside triphosphate diphosphohydrolase 5 (Mus musculus) (assay: Inhibition of ENTPD5 in PTEN knockout mouse MEF cells assessed as induction of ER stress by measuring increase in EGF receptor degradation incubated for 24 hrs by Western blotting analysis).
Assay type: cell-based
`COc1ccc(-n2cccc2/C=C2\C(=O)NC(=S)N(c3cccc(Br)c3)C2=O)cc1` was tested, and the inhibition was “Dose-dependent effect”.

Each compound was assayed on LNCaP (assay: Antitumor activity against human LNCAP cells xenografted in mouse assessed as induction of tumor shrinkage at 1 to 100 mg/kg, ip dosed every other day and measured after 6 weeks by microscopy).
Assay type: functional, organism-based
For `COc1ccc(-n2cccc2/C=C2\C(=O)NC(=S)N(c3cccc(Br)c3)C2=O)cc1`, the Activity was “Active”. For `O=C1NC(=S)N(c2ccccc2)C(=O)/C1=C/c1ccc(-c2cc([N+](=O)[O-])ccc2Cl)o1`, the Activity was “Active”. In the case of `O=C(Nc1ccccc1)NC(N1CCOCC1)C(Cl)(Cl)Cl` (centres undefined), the Activity is reported as “Active”. With `Cc1cc(I)cc2c1NC(c1ccc([N+](=O)[O-])cc1)C1CC=CC21` (centres undefined) the Activity was “Active”. With `Cc1ccc(-c2ccc(C=C3C(=O)NC(=S)NC3=O)o2)c(Br)c1` the Activity was “Active”. With `O=C1NC(=S)N(c2ccccc2)C(=O)/C1=C/c1ccc(-c2ccc(F)cc2)o1` the Activity was “Active”.

The compounds below were run on LNCaP (assay: Antitumor activity against human LNCAP cells xenografted in mouse assessed as reduction in cells left in matrigels at 1 to 100 mg/kg, ip dosed every other day and measured after 6 weeks by hematoxylin and eosin staining based microscopy).
Assay type: functional, organism-based
`COc1ccc(-n2cccc2/C=C2\C(=O)NC(=S)N(c3cccc(Br)c3)C2=O)cc1` was tested, and the Activity was “Active”. `O=C1NC(=S)N(c2ccccc2)C(=O)/C1=C/c1ccc(-c2cc([N+](=O)[O-])ccc2Cl)o1` was tested, and the Activity was “Active”. For `O=C(Nc1ccccc1)NC(N1CCOCC1)C(Cl)(Cl)Cl` (centres undefined), the Activity was “Active”. With `Cc1cc(I)cc2c1NC(c1ccc([N+](=O)[O-])cc1)C1CC=CC21` (centres undefined) the Activity was “Active”. `Cc1ccc(-c2ccc(C=C3C(=O)NC(=S)NC3=O)o2)c(Br)c1` was tested, and the Activity was “Active”. For `O=C1NC(=S)N(c2ccccc2)C(=O)/C1=C/c1ccc(-c2ccc(F)cc2)o1`, the Activity was “Active”.

What follows are compounds tested against T2, Nucleoside diphosphate phosphatase ENTPD5 (Homo sapiens) (UniProt O75356) (assay: Inhibition of human recombinant ENTPD5 expressed in insect cells assessed as reduction in UDP hydrolysis at 1 uM incubated for 1 hr in presence of UMP, GTP and ATP by Escherichia coli UMP kinase pyrH catalyzed UMP phosphorylation coupled luciferase assay).
T2 sequence (whole entry): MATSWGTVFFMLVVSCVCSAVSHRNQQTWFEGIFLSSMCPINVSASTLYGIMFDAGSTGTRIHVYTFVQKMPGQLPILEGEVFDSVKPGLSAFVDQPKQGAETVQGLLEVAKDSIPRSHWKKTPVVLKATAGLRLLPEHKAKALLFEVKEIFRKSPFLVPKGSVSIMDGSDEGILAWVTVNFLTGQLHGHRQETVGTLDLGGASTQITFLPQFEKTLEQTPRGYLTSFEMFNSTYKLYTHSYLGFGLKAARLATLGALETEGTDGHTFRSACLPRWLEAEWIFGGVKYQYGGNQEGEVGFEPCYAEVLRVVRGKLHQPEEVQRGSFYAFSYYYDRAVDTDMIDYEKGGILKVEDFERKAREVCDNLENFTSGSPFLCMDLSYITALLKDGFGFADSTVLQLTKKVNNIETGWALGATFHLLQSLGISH
`COc1ccc(-n2cccc2/C=C2\C(=O)NC(=S)N(c3cccc(Br)c3)C2=O)cc1` was tested, and the inhibition was “Active”. In the case of `O=C1NC(=S)N(c2ccccc2)C(=O)/C1=C/c1ccc(-c2cc([N+](=O)[O-])ccc2Cl)o1`, the inhibition is reported as “Active”. For `O=C(Nc1ccccc1)NC(N1CCOCC1)C(Cl)(Cl)Cl` (centres undefined), the inhibition was “Active”. In the case of `Cc1cc(I)cc2c1NC(c1ccc([N+](=O)[O-])cc1)C1CC=CC21` (centres undefined), the inhibition is reported as “Active”. For `Cc1ccc(-c2ccc(C=C3C(=O)NC(=S)NC3=O)o2)c(Br)c1`, the inhibition was “Active”. For `O=C1NC(=S)N(c2ccccc2)C(=O)/C1=C/c1ccc(-c2ccc(F)cc2)o1`, the inhibition was “Active”.

What follows are compounds tested against T2, Nucleoside diphosphate phosphatase ENTPD5 (Homo sapiens) (assay: Inhibition of human recombinant ENTPD5 expressed in insect cells assessed as reduction in UDP hydrolysis up to 10 uM incubated for 1 hr in presence of UMP, GTP and ATP by Escherichia coli UMP kinase pyrH catalyzed UMP phosphorylation coupled luciferase assay).
With `COc1ccc(-n2cccc2/C=C2\C(=O)NC(=S)N(c3cccc(Br)c3)C2=O)cc1` the inhibition was “Dose-dependent effect”. For `O=C1NC(=S)N(c2ccccc2)C(=O)/C1=C/c1ccc(-c2cc([N+](=O)[O-])ccc2Cl)o1`, the inhibition was “Dose-dependent effect”. `O=C(Nc1ccccc1)NC(N1CCOCC1)C(Cl)(Cl)Cl` (centres undefined) was tested, and the inhibition was “Dose-dependent effect”. In the case of `Cc1cc(I)cc2c1NC(c1ccc([N+](=O)[O-])cc1)C1CC=CC21` (centres undefined), the inhibition is reported as “Dose-dependent effect”. For `Cc1ccc(-c2ccc(C=C3C(=O)NC(=S)NC3=O)o2)c(Br)c1`, the inhibition was “Dose-dependent effect”. `O=C1NC(=S)N(c2ccccc2)C(=O)/C1=C/c1ccc(-c2ccc(F)cc2)o1` was tested, and the inhibition was “Dose-dependent effect”.

The compounds below were run against T3, Uridylate kinase (Escherichia coli (strain K12)) (UniProt P0A7E9) (assay: Inhibition of recombinant Escherichia coli UMP kinase pyrH catalyzed UMP phosphorylation in presence of GTP and ATP incubated for 1 hr by luminescence based assay).
T3 sequence (whole entry): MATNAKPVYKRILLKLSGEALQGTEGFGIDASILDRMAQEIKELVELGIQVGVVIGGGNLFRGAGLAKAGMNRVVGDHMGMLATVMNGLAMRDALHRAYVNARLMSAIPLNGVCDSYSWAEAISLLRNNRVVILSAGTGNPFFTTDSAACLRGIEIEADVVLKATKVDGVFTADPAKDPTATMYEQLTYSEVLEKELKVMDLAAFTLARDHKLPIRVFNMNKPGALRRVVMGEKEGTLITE
`COc1ccc(-n2cccc2/C=C2\C(=O)NC(=S)N(c3cccc(Br)c3)C2=O)cc1` was tested, and the inhibition was “inactive”. For `O=C1NC(=S)N(c2ccccc2)C(=O)/C1=C/c1ccc(-c2cc([N+](=O)[O-])ccc2Cl)o1`, the inhibition was “inactive”. `O=C(Nc1ccccc1)NC(N1CCOCC1)C(Cl)(Cl)Cl` (centres undefined) was tested, and the inhibition was “inactive”. `Cc1cc(I)cc2c1NC(c1ccc([N+](=O)[O-])cc1)C1CC=CC21` (centres undefined) was tested, and the inhibition was “inactive”. With `Cc1ccc(-c2ccc(C=C3C(=O)NC(=S)NC3=O)o2)c(Br)c1` the inhibition was “inactive”. `O=C1NC(=S)N(c2ccccc2)C(=O)/C1=C/c1ccc(-c2ccc(F)cc2)o1` was tested, and the inhibition was “inactive”.

The compounds below were run against T2, Nucleoside diphosphate phosphatase ENTPD5 (Homo sapiens) (assay: Inhibition of human recombinant ENTPD5 expressed in insect cells assessed as reduction in reduction in UDP hydrolysis by measuring inorganic phosphate release incubated for 1 hr by malachite green based assay).
In the case of `COc1ccc(-n2cccc2/C=C2\C(=O)NC(=S)N(c3cccc(Br)c3)C2=O)cc1`, the inhibition is reported as “Active”. For `O=C1NC(=S)N(c2ccccc2)C(=O)/C1=C/c1ccc(-c2cc([N+](=O)[O-])ccc2Cl)o1`, the inhibition was “Active”. `O=C(Nc1ccccc1)NC(N1CCOCC1)C(Cl)(Cl)Cl` (centres undefined) was tested, and the inhibition was “Active”. With `Cc1cc(I)cc2c1NC(c1ccc([N+](=O)[O-])cc1)C1CC=CC21` (centres undefined) the inhibition was “Active”. In the case of `Cc1ccc(-c2ccc(C=C3C(=O)NC(=S)NC3=O)o2)c(Br)c1`, the inhibition is reported as “Active”. `O=C1NC(=S)N(c2ccccc2)C(=O)/C1=C/c1ccc(-c2ccc(F)cc2)o1` was tested, and the inhibition was “Active”.
